Test: hygroscopicity
Type: physicochemical
Details: crystals from acetone/ether, monohydrate

hygroscopicity: Hygroscopic
Compound: C=C(COC(=O)CCCCCC[n+]1ccsc1)COC(=O)NCCCCCCCCCCCCCCCCCC [Example 46, 1-Octadecylaminocarbonyloxy-3-[7-(3-thiazolio)heptanoyloxy]-2-methylenepropane bromide]

Reference: patent US4945098A, “Novel propane-1,3-diol derivatives and use” (Leo Pharmaceutical Products Ltd. A/S (Lovens Kemiske Fabrik, priority 1985, dated 1990)
